Measurements: article PMC12250763, “Synergistic and Antagonistic Mechanisms of Arctium lappa L. Polyphenols on Human Neutrophil Elastase Inhibition: Insights from Molecular Docking and Enzymatic Kinetics” (Molecules, 2025)

Target: T1, human neutrophil elastase (HNE) (Homo sapiens, UniProt P08246)
T1 construct: gene ELANE
T1 sequence (P08246 30-247): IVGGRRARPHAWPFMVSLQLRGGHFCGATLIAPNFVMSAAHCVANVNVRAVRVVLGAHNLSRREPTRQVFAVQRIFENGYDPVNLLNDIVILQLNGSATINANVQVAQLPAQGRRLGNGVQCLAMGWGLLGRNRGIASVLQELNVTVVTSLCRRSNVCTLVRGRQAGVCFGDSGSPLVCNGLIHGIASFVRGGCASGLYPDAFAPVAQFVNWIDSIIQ
Test: chromogenic elastase assay (MeOSuc-AAPV-pNA, […] nm), dose-response
Format: biochemical

SMILES | IC50 [µM]
O=C(/C=C/c1ccc(O)c(O)c1)O[C@@H]1C[C@](O)(C(=O)O)C[C@@H](O)[C@H]1O [Cha, chlorogenic acid] | 203
O=C(/C=C/c1ccc(O)c(O)c1)O[C@@H]1C[C@](O)(C(=O)O)C[C@@H](OC(=O)/C=C/c2ccc(O)c(O)c2)[C@H]1O [Iso A, isochlorogenic acid A] | 171
